Non-standard residues stand in square brackets, D forms with d. No end group written: not given here. Nle = CCCC[C@H](N)C(=O)O
Columns and labels:
B16-F10 melanoma cells = assay: In vivo pulmonary B16-F10 melanoma metastasis model; design: species or system C57BL/6 mice; details: tail vein inoculation, IP 50 μg/kg/day, fourteen days, melanin absorbance
Procedure: (FIG. 13A) C57BL/6 mice were inoculated subcutaneously with B16-F10 cells. Control or Norleual-containing slow release Elvax pellets were implanted inter-muscularly. Tumors were measured with digital calipers and tumor volumes were calculated (n=6), error bars indicate ±SD. (FIG. 13B) 400,000 B16-F10 cells, treated in suspension with either Norleual at 10^−11 M or PBS as a vehicle control, were injected into the tail vein of C57BL/6 mice. Mice received IP injections of Norleual (50 μg/kg/day) or PBS vehicle control. After fourteen days, lungs were removed and the absorbance of melanin was used to quantify metastasis; bars show (left to right) graft recipients treated with vehicle only, Norelual treated graft recipients, and ungrafted age-matched control. Error bars indicate±SEM, with n=5 and *p<0.05. (FIG. 13C) Photo of representative lungs from vehicle-only treated (controls, “Norleal −”) and Norleual treated (“Norleual +”) grafted mice.
In vivo metastasis. Six to eight month old C57BL/6 mice were injected with 400 000 B16-F10 cells in 200 μl PBS by tail vein injection. Two to three weeks later, mice were anesthetized and lungs were perfused with PBS and removed. […] The supernate was transferred to a 96 well plate and melanin absorbance at 410 nm was measured using a plate reader (Biotek Synergy2, Winooski, Vt., USA). […]

[1] = test system: HEK293 cell membranes (c-Met system); assay: 125I-Norleual binding assay, HEK293 cell membranes; design: species or system human; details: 1.5 nM HGF or 1 μM Norleual
Procedure: FIG. 3C: ^125I-Norleual was bound to HEK membranes in the presence or absence of 1.5 nM HGF (n=8) or 1 μM Norleual (n=6). Total binding is reported as percent control (n=10), (*p<0.001). Error bars indicate±SD. […] Error bars indicate SD and data points were performed in duplicate.
^125I-Norleual binding assay. HEK293 cells were grown to confluency in DMEM fortified with 10% FBS. Media was aspirated and cells were washed twice with ice-cold PBS. Cells were lysed with hypotonic buffer and homogenized as described by Zhang et al. (1999, J. Pharmacol. Exp. Ther. 289: 1075-1083; 2003 J. Cell Biochem. 88: 408-417). 450 μg of membrane protein was incubated with 1.5 nM ^125I-Norleual with or without Norleual or HGF in a total volume of 250 μl PBS, 0.1% BSA. Tubes were spun and binding was carried out for 60 minutes at RT. Bound and free ligands were separated by vacuum filtration using (Brandel Cell Harvester, Schleicher & Schull, Keene, N.H., USA) 32 glass filters. Radioactivity retained by the filters was measured using a gamma counter. […] Data analysis was preformed using Prism software (GraphicPad) per the supplier's recommendations.
Materials and methods were as described in Example 1. In separate tests of unlabeled competitors, both Norleual and HGF competed with ^125I-HGF for high affinity binding to mouse liver plasma membranes (FIGS. 2A, 2B). […]

human endothelial cells = assay: Proliferation and migration of human endothelial cells; assay type: cell-based
[2] = test system: +SA WAZ-2T mouse mammary carcinoma cells; assay: Orthotopic +SA WAZ-2T mammary carcinoma model; assay type: in vivo, Balb/c mice
Procedure: This Example describes Norleaul effects in a mouse model of breast cancer in which animals were orthotopically injected with +SA WAZ-2T mouse mammary carcinoma cells (5×10^5) into the mammary fat pad of 11-week old female Balb/c mice. The +SA cell line was chosen due to its aggressive nature and ability to form highly vascularized tumors with 100% incidence per injection (Danielson et al., 1986). NORLEUAL (SEQ ID NO:43) was delivered via Elvax slow release pellets at doses of 0.3 mg/pellet, 0.03 mg/pellet, and 0.003 mg/pellet, implanted into the mammary glands immediately prior to tumor cell injection. These pellets provided an estimated continuous release of NORLEUAL at doses equivalent to 37.5 μg/kg/day, 3.75 μg/kg/day, and 0.375 μg/kg/day, respectively (based on in vitro release assays of pellets, data not shown). […] Tumor growth was monitored every 2-3 days, based on caliper measurements of the two longest diameters and calculating tumor volume.

[3] = test system: B16-F10 murine melanoma cells; assay: B16-F10 scratch wound closure assay; assay type: cell-based; details: six hours after scratch
Procedure: Scratch Assay. Confluent B16-F10 cells in 48 well plates were scratched with a 200 μl pipette tip. Wells were treated with vehicle, HGF, and/or Norleual. Photos were taken at various time points. Photos were graded by two investigators.
See Example 1 for Materials and Methods. Norleual was applied to HGF treated B16-F10 murine melanoma cells in a scratch wound assay. HGF accelerated the wound closure, however Norleual was able to attenuate HGF stimulated closure six hours after scratch (FIG. 11A).

Substance: Nle-Tyr-Leu-ψ-His-Pro-Phe ([Nle]YLHPF; also: reduced peptide bond psi(CH2NH2) between Leu and His) [Norleual]
- B16-F10 lung metastasis (B16-F10 melanoma cells): dramatically inhibited
- Competition for 125I-Norleual specific binding to HEK293 cell membranes [1]: competed
- Proliferation and migration of human endothelial cells (human endothelial cells): inhibited
- Tumor volume ([2]; 0.003 mg/pellet, n=6): 112.7±61 mm^3
- Tumor mean vessel count/high power field (Factor VIII staining) ([2]; 0.3 mg/pellet, n=5, control 27.8±3): 3.0±0.9
- Delay in onset of palpable tumor mass ([2]; 0.3 mg/pellet, n=6, control 7 day lag): up to 21 days
- Inhibition of tumor volume compared to control ([2]; most effective dose, 0.3 mg/pellet): 97%
- Visible vascularization of tumors removed at conclusion ([2]; treated tumors): total lack of visible vascularization
- HGF stimulated scratch wound closure [3]: attenuate
